Patent US20050019931A1, “Nucleic acids encoding antifungal drug targets and methods of use” (Elitra Pharmaceuticals, Inc., priority 2002, published 2005)

Legend:
[1] = system: CaHIS3 (imidazoleglycerol phosphate dehydratase) wild type, heterozygote and GRACE strains; assay: Target level variation whole cell assay: sensitivity of CaHIS3 strains towards 3-aminotriazole; assay type: cell-based, Candida albicans; settings: for sensitivity of CaHIS3 GRACE strain minimally expressing CaHIS3 (partial repression, threshold tetracycline): FIG. 6C/6D
Text: The data derived from these experiments clearly indicate that distinct levels of target gene products synthesized within the pathogen could be directly applied in whole cell assay based drug screens to identify novel antifungal compounds active against novel drug targets validated using the GRACE method.
3-AT is a competitive inhibitor of the enzyme encoded by CaHIS3, imidazoleglycerol phosphate dehydratase, and together serve as a model for a drug and drug target respectively. […] The phenotype observed is consistent with that expected in light of the predicted 7.5 fold overexpression of CaHIS3 determined by Northern bolt analysis (see FIG. 5). […] A third CaHIS3 expression level evaluated for differential sensitivity to 3-AT was produced by partial repression of the GRACE CaHIS3 strain using a threshold concentration of tetracycline 0.1% […].
(§1) Moreover, these experiments clearly indicate how distinct levels of target gene products synthesized within the pathogen could be directly applied in whole cell assay based drug screens to identify novel antifungal compounds against those novel drug targets validated using the GRACE method.

[2] = system: bar-coded strains bearing heterozygous mutations in HIS3, TUB 1, ALG7, and ERG 11; settings: mixed population; HIS3, TUB 1, ALG7, ERG 11 respectively; cited from earlier work
C. albicans = assay: Sensitivity of C. albicans to selection antibiotics (dominant selectable markers); assay type: cell-based, Candida albicans
Text: Several art-known methods are available to create a heterozygote mutant. In less preferred embodiments, auxotrophic markers, such as but not limited to CaURA3, CaHIS3, CaLEU2, or CaTRP1, could be used for gene disruption if desired. However, the preferred method of heterozygote construction in diploid fungi employs a genetically modified dominant selectable marker. C. albicans is sensitive to the nucleoside-like antibiotic streptothricin at a concentration of 200 micrograms per milliliter. The presence of the Escherichia coli SAT1 gene within C. albicans allows acetylation of the drug rendering it nontoxic and permitting the strain to grow in the presence of streptothricin at a concentration of 200 micrograms per milliliter. Expression of the SAT1 gene in C. albicans is made possible by engineering the gene so that its DNA sequence is altered to conform to the genetic code of this organism and by providing a CaACT1 promoter (Morschhauser et al. (1998) Mol. Gen. Genet. 257:412-420) and a CaPCK1 terminator sequence (Leuker et al. (1997) Gene 192: 235-40). This genetically modified marker is referred to as CaSAT1 which is the subject of a copending United States nonprovisional application, published under the publication no. US20010031724, which is incorporated herein by reference in its entirety. […]

CaERG11 GRACE strain = assay: GRACE strain drug resistance/sensitivity by increasing and decreasing target expression; assay type: cell-based, Candida albicans
Text: as §1

CaALG7 GRACE strain = assay: as above; assay type: cell-based, Candida albicans
Text: as §1

[3] = inhibitory 3-AT concentration, FIG. 6A
[4] = intermediate 3-AT concentration, FIG. 6B

## Nc1nc[nH]n1 [3-AT, 3-aminotriazole]
[1]; [3]
  growth of CaHIS3 heterozygote strain: completely inhibit growth
  growth of wild type CaHIS3 strain: completely inhibit growth
  phenotype of CaHIS3 GRACE strain overexpressing CaHIS3 (constitutive tetracycline promoter expression): resistance
[1]; [4]
  effect on tetracycline promoter-based overproducing CaHIS3 strain: unable to effect
  effect on wild type CaHIS3 strain: unable to effect
  sensitivity of heterozygous CaHIS3 strain (haploinsufficient phenotype): enhanced sensitivity
[1]; intermediate 3-AT concentration
  sensitivity of CaHIS3 GRACE strain minimally expressing CaHIS3 (partial repression, threshold tetracycline): enhanced drug sensitivity relative the heterozygous CaHIS3 strain
[1]; intermediate 3-AT concentration, listed as 3-aminotriazole
  sensitivity of CaHIS3 GRACE strain minimally expressing CaHIS3 (partial repression, threshold tetracycline): hypersensitivity
[2]
  sensitivity of the bar-coded strain heterozygous for the respective drug target versus other heterozygote bar-coded strains: significantly greater sensitivity

## CCCCNC(=O)n1c(NC(=O)OC)nc2ccccc21 [benomyl]
[2]
  sensitivity of the bar-coded strain heterozygous for the respective drug target versus other heterozygote bar-coded strains: significantly greater sensitivity

## CN(CC[C@H](N)CC(=O)N[C@H]1C=C[C@H](n2ccc(N)nc2=O)O[C@@H]1C(=O)O)C(=N)N [blasticidin]
C. albicans; concentration not given
  sensitivity of C. albicans: sensitive

## OC(Cn1cncn1)(Cn1cncn1)c1ccc(F)cc1F [fluconazole]
CaERG11 GRACE strain
  GRACE strain-specific phenotypes on increasing and decreasing expression of the known drug target: drug resistance and sensitivity phenotypes
[2]
  sensitivity of the bar-coded strain heterozygous for the respective drug target versus other heterozygote bar-coded strains: significantly greater sensitivity

## streptothricin
C. albicans; concentration of 200 micrograms per milliliter
  sensitivity of C. albicans: sensitive

## tunicamycin
CaALG7 GRACE strain
  GRACE strain-specific phenotypes on increasing and decreasing expression of the known drug target: drug resistance and sensitivity phenotypes
[2]
  sensitivity of the bar-coded strain heterozygous for the respective drug target versus other heterozygote bar-coded strains: significantly greater sensitivity
